Data from a melting point compilation (Tetko et al.; mined from patent text by program, amines drawn as free bases though some values may be those of a salt).

First: COc1cc2c(cc1OC)OCCC(C(=O)O)=C2
Second: COc1cc2cc(C(N)=O)sc2cc1OC
The melting point of the first is lower: 209 to 210 °C for the first, 211 to 213 °C for the second.

First: CCOC(=O)N1CCC(=C2c3ccccc3CCn3ncnc32)CC1
Second: Cc1ccc(CNC(=O)c2sc(N3CCN(Cc4ccccc4)C3=O)nc2C)o1
The melting point of the first is lower: 106 °C for the first, 138 to 139 °C for the second.

First: N#Cc1ccc(OCc2ccncc2)cc1OC(C(=O)O)c1ccccc1Br (racemic)
Second: CC(=O)c1cc(N(C)C)ccc1NC(=O)c1cccc(OCc2ccccc2)c1
The melting point of the first is higher: 171 to 172 °C for the first, 147 to 149 °C for the second.

Compared with `Cc1cc(OCc2cccc(C(=O)O)c2)c([N+](=O)[O-])cc1S(=O)(=O)N(C)C`, `O=C(O)c1cccc(CC2COc3ccc(OCc4ccccc4)cc3C2)c1` (single isomer, unassigned; (+)) is lower in melting point: 220 to 221 °C for the first, 128 to 130 °C for the second.

First: COc1ccc(CCC(=O)c2cccnc2Oc2ccc(F)cc2)cc1
Second: Cc1ccccc1CNCCc1ccc(NC(=N)c2cccs2)cc1
The melting point of the first is lower: 73 to 74 °C for the first, 105 to 106 °C for the second.

First: CC1(C)C(=O)N(c2ccc(C#N)c(C(F)(F)F)c2)C(=O)N1CCCCO
Second: CCOC(=O)c1cn2c3c(c(Cl)ccc3c1=O)N(C)CC2C (centres undefined)
The melting point of the first is lower: 102 to 103 °C for the first, 259 to 261 °C for the second.

Compared with `CCN1Cc2nc(CO)cn2-c2ccccc21`, `Cc1ncoc1C(O)c1ccccc1` (centres undefined) is lower in melting point: 160 to 165 °C for the first, 79 to 81 °C for the second.

Compared with `Cc1cc(F)ccc1C(O)(Cc1nnnn1C)c1ccc(F)cc1C`, `Cc1cc(Oc2ccc(Cl)nn2)c(C)cc1N` is lower in melting point: 186 to 188 °C for the first, 138 to 140 °C for the second.

First: COc1cc(C)c2c(Cl)c(OC)ccc2n1
Second: COc1cc(-n2c(C)c(CC(=O)O)c3cc(C)ccc32)nc(OC)n1
The melting point of the first is lower: 97 to 100 °C for the first, 197 to 198 °C for the second.

Compared with `COc1ccc(-c2[nH]nc3c2C(=O)c2c(NC(=O)NNC(=O)c4ccccc4)cccc2-3)cc1`, `COC(=O)c1cccc(-c2nc(=O)c3ccccc3s2)c1` is lower in melting point: greater than 300 °C for the first, 164 °C for the second.

First: O=C(c1ccccc1)N1CCC(CSc2ccccc2)CC1
Second: Cc1c(C(N)=NO)ncn1-c1cccc(Oc2ccccc2)c1
The melting point of the first is lower: 76 to 79 °C for the first, 196 to 198 °C for the second.

`CS(=O)(=O)Nc1ccc([N+](=O)[O-])nc1` and `Cn1nc2c(N)nc3ccccc3c2c1CCCCNS(C)(=O)=O` cannot be ordered by melting point: 187 to 189 °C for the first, 188 to 189 °C for the second.

First: Nc1c(S(=O)(=O)c2ccc(O)cc2)c2nccnc2n2ccnc12
Second: Nc1cccc(-c2n[nH]c3ncnc(Nc4cccc(Cl)c4)c23)c1
The melting point of the first is higher: greater than 300 °C for the first, 264 to 266 °C for the second.

First: COC1=CC23CCN(C=O)C(Cc4cccc(OC)c42)C3CC1 (centres undefined)
Second: CC1CN(C)N(c2cc(Cl)cc(Cl)c2)C(=O)N1 (centres undefined)
The melting point of the first is higher: 169 to 172 °C for the first, 129 to 130 °C for the second.

Compared with `CCOC(=O)C=CN1C(C)(C)CC(N(C=O)CCCCCCN(C=O)C2CC(C)(C)N(C=CC(=O)OCC)C(C)(C)C2)CC1(C)C`, `O=C(O)CCCCCCCCCCSSCCCCCCCCCCC(=O)O` is lower in melting point: 172 °C for the first, 94 °C for the second.

First: CC(CF)(CF)C(=O)C=Cc1ccccc1
Second: N#Cc1ccc(-c2ccc(OCCCC(=O)NO)cc2)cc1
The melting point of the first is lower: 45 °C for the first, 170 to 172 °C for the second.

Compared with `CCCn1nc(C(C)C)c(C(=O)OCc2ccccc2C(=O)c2ccccc2)c1Cc1ccc(-c2ccccc2S(=O)(=O)NC(=O)OCC(C)C)c(F)c1`, `CCc1cccc(-c2ccc(S(=O)(=O)N3c4ccccc4CC3C(=O)NCc3ccc(CC(=O)OC)cc3)cc2)c1` (centres undefined) is higher in melting point: 52 to 59 °C for the first, 70 to 75 °C for the second.

First: Cc1c(Cc2cccc(C(F)(F)F)c2)sc2c(-c3cc(F)cc(C(=O)O)c3)cccc12
Second: COc1ccc(C(=O)c2cc(-c3ccc(Cl)cc3)c(N3CCOCC3)s2)cc1
The melting point of the first is higher: 168 to 169 °C for the first, 120 °C for the second.

Compared with `CC(C)(C)C(NC(=O)c1cccc(I)c1)Nc1c(Nc2cccnc2)c(=O)c1=O` (centres undefined), `O=C(CCC1CCCCCCCCCCC1=O)C1=C(O)CSC1=O` (centres undefined) is lower in melting point: 234 to 236 °C for the first, 93 to 95 °C for the second.

For `O=C(O)CSc1nc(Cl)cc(Cl)n1`, the melting point was 120 to 122 °C.
